Experimental data published in patent EP0273199A2, “Uses of 3,4-diphenyl piperidine derivatives or medicines, 3,4-diphenyl piperidine derivatives, and process for their preparation” (LABORATOIRES HOECHST S.A., priority 1986, dated 1988).
“And” between values parts separate entries of the source, which are not always exact repeats. Equal entries are not always repeated. Structures can show the parent of a compound that is named as a salt. Where two headings read alike, the source gives them in different places.

What was measured:
[1] = system: durch Reserpin induzierten Hypothermie; experiment: Antireserpine activity (reserpine-induced hypothermia); format: in vivo, Maus; details: for minimal effective dose: ip
Description: Zur Zeit 0 erhalten die Mäuse intraperitoneal Reserpin (2,5 mg/kg).
4 Stunden danach, wenn die Hypothermie genügend stark erscheint (30 bis 33°C), verabreicht man die verschiedenen zu untersuchenden Verbindungen i.p. oder p.o. Alle 30 Minuten über einen Zeitraum von 2 Stunden mißt man die Rektaltemperatur mit einer auf konstante Tiefe eingeführten, ein Thermoelement tragenden Sonde. Die Rektaltemperatur der mit verschiedenen erfindungsgemäßen Verbindungen behandelten Tiere wird mit der Temperatur einer Kontrollgruppe verglichen, die destilliertes Wasser auf die gleiche Weise wie die untersuchten Verbindungen erhält.
Die Akinesie (fehlende Bewegungen) und Ptose (Öffnungsgrad des Augenlids von 0 bis 4 nach Rubin u.a 1957) werden ebenfalls alle 30 Minuten über einen Zeitraum von 2 Stunden bewertet.
Die eine antidepressive Aktivität besitzenden Produkte wirken der durch Reserpin induzierten Hypothermie entgegen. Für jede Dosis der verabreichten Verbindung berechnet man die prozentuale Hemmung der Hypothermie.

Maus [2] = experiment: Behavioural despair test (Porsolt forced swimming); format: in vivo; details: mouse; for Dauer der Unbeweglichkeit: 30 min before test
Excerpt: Test auf verzweifeltes Verhalten, wie von Porsolt u.a. (Arch. Int, Pharmacodyn. Ther. 229, 327 - 336, 1977) beschrieben.
Die Verbindungen werden intraperetoneal 30 Minuten vor dem Test verabreicht, und die Tiere werden vor dem erzwungenen Schwimmtest isoliert gehalten. Man bewertet die Dauer der Unbeweglichkeitsperioden in Sekunden ausgedrückt, die von der 2. bis zur 6. Minute nach dem Einsetzen des Tieres in Wasser gezählt werden.

Apomorphin 16 mg/kg = experiment: Antiapomorphine activity (apomorphine 16 mg/kg s.c., hypothermia); format: in vivo, Maus; details: for minimal effective dose: ip
Description: Zur Zeit 0 nach Ausgleich der Reaktaltemperaturen werden die Mäuse (6 pro Gruppe) in deren Beobachtung gestattende Einzelkäfige (11 x 3,5 x 4 cm) eingeetzt. 30 Minuten nach i.p. bzw. p.o. Verabreichung der Testsubstanz erhalten sie Apomorphin subkutan in einer Dosis von 16 mg/kg. Die Rektaltemperatur wird 30 Minuten nach dem Apomorphin gemessen. Die Kontrolltiere erhalten destilliertes Wasser statt der zu untersuchenden Verbindungen. Die bei diesen Kontrolltieren, die 16 mg/kg Apomorphin erhalten haben, beobachtete Hypothermie liegt im Durchschnitt bei 33°C. Für jede Verbindungsdosis berechnet man die prozentuale Hemmung der Hypothermie.

Motoraktivität = experiment: Actimetry (motor activity, photocell actimeter); format: in vivo, Maus; details: for Motilität: i.p., direction of change; for Motilität / minimal effective dose: Tabelle Ib; for minimal effective dose: ip, read-out: Erste wirksame Dosis Motilität; for Aktimetrie: direction of change of motor activity
Excerpt: Die Motoraktivität wird mittels Photozellenaktimetern bestimmt (Boissier und Simon, Arch. Int. Pharmacodyn. 1965, 158, 212-221).
Die Mäuse (10 oder ein Vielfaches von 10 pro Gruppe) werden unmittelbar nach i.p. Verabreichung der zu untersuchenden Verbindungen in das Aktimeter eingesetzt. Die Motoraktivität wird danach bis zur 60. Minute gemessen. De Zähler werden nach 30 Minuten abgelesen und dann auf 0 zurückgestellt und im Verlauf von 30 Minuten alle 10 Minuten abgelesen.
Die Beweglichkeit der mit den verschiedenen Verbindungen behandelten Tiere wird mit derjenigen einer destilliertes Wasser erhaltenden Kontrollgruppe verglichen.
Die eine psychostimulierende Aktivität besitzenden Produkte verursachen eine Zunahme der Beweglichkeit.

[3] = system: Apomorphin 1 mg.kg^-1 s.c.; experiment: Apomorphine 1 mg/kg s.c. antagonism (no method given); format: in vivo; details: ip, Tabelle Ib; read-out: Erste wirksame Dosis Apomorphin 1 mg.kg^-1 s.c.
Maus [4] = experiment: Tail suspension test; format: in vivo; details: for minimal effective dose: ip; for % Antagonismus / Dauer der Unbeweglichkeit: mouse
Excerpt: Schwanzaufhängungstest an der Maus wie von Stéru u.a. beschrieben (Psychopharmacology 85, 367-370, 1985).
Die Substanzen werden intraperitoneal 30 Minuten vor dem Test verabreicht und die Tiese isoliert (10 Mäuse pro Dosis).
Man bewertet die Dauer der Unbeweglichkeit, ausgedrückt in Sekunden über die 6 Minuten des Tests. Man untersucht auf eine Verkürzung dieser Unbeweglichkeitszeit.

Toxizität des Yohimbins = experiment: Potentiation of yohimbine toxicity; format: in vivo, Maus; details: for minimal effective dose: ip, Tabelle Ib, read-out: Erste wirksame Dosis Yohimbin; for Erste wirksame Dosis Yohimbin: mouse, i.p., only or lowest value of the cell
Description: Wirkung auf die Toxizität des Yohimbins
Zur Zeit 0 erhalten die Mäuse entweder destilliertes Wasser oder verschiedene zu untersuchende Verbindungen i.p. 30 Minuten danach verabreicht man ihnen subkutan eine infratoxische Dosis von 25 mg/kg Yohimbinchlorhydrat.
Die Mortalität wird jede Stunde über einen Zeitraum von 4 Stunden verfolgt und dann nach 24 Stunden notiert.
Die eine antidepressive Aktivität besitzenden Produkte verursachen eine Potenzierung der Toxizität des Yohimbins.

[5] = system: durch Oxotremorin induzierten Hypothermie; experiment: Antioxotremorine activity (oxotremorine-induced hypothermia); format: in vivo, Maus; details: Mus musculus, ip, read-out: Erste wirksame Dosis Oxotremorin
Description: Nach Ausgleich der Rektaltemperaturen erhalten Mäuse (6 pro Gruppe) entweder destillietes Wasser oder die verschiedenen zu untersuchenden Verbindungen i.p.
30 Minuten danach verabreicht man intraperitoneal Oxotremorin in einer Dosis von 0,5 mg/kg.
Die Mäuse werden dan beobachtet: Tremor wird je nach der Intensität von 0 bis 3 bewertet, und die Akinesie wird alle 10 Minuten über einen Zeitraum von 30 Minuten auf Vorliegen oder Fehlen bestimmt.
Außerdem beobachtet man 2 Stunden lang das Erscheinen peripherer Symptome (Tränen, Darmentleerung). Die Rektaltemperatur wird alle 30 Minuten über eine Zeitraum von 2 Stunden nach der Verabreichung des Oxotremorins gemessen.
Die eine antidepressive Aktivität besitzenden Produkte wirken der durch Oxotremorin induzierten Hypothermie entgegen.
Für jede Dosis der Verbindung berechnet man die prozentuale Hemmung der Hypothermie.

Maus [6] = experiment: Hot plate test (licking and jumping), analgesia; format: in vivo
Description: Heizplattentest: Lecken und Springen, wie von Jacob und Blozovski beschrieben (Arch. Int. Pharmacodyn. 133, 296-209, 1961).
Die in Sekunden ausgedrückten Reaktionszeiten auf einer Heizplatte werden unter Berücksichtigung des Leckens der Vorderpfoten und Springen des Tieres als Kriterien bewertet. Die beiden Reaktionen werden am selben, anfänglich untrainierten Tier mit einer maximalen Ansprechzeit (Obergrenze) von 240 Sekunden beobachtet. Die Temperatur der Platte wird auf 56,6°C gehalten.
Morphin als positive Kontrolle wird subkutan und die übrigen Substanzen (mg/kg) werden intraperitoneal 30 Minuten vor dem Test verabreicht. Positives Ansprechen zeigt sich in einer Zunahme der Reaktionszeit.
Wird der schadensverhütenden Wirkung eine Substanz durch Naloxon entegengewirkt, so kann man schließen, daß die Substanz tatsächlich eine analgetische Wirkung besitzt.

L-5-Hydroxytryptophan = experiment: Potentiation of L-5-hydroxytryptophan effects (head twitches, tremor); format: in vivo, Maus; details: mouse
Description: L-5 HTP induziert an der Maus ruckartige Bewegungen des Kopfes (Kopfzuckungen). Die zu untersuchenden Substanzen werden den Tieren (10 Mäuse pro Dosis) intraperitoneal 30 Minuten vor dem L-5 HTP (4 mg/kg intraperitoneal) verabreicht. Die ruckartigen Kopfbewegungen und der Tremor werden 1 Minutre lang alle 10 Minuten im Verlauf einer Stunde bewertet. Desimipramin und Indalpin sind die Kontrol-(Vergleichs-)verbindungen. Ein antidepressiver Effekt zeigt sich durch eine Zunahme der ruckartigen Kopfbewegungen und des Tremors.

[7] = Tabelle Ib, read-out: Erste wirksame Dosis Reserpin
[8] = Tabelle Ib, read-out: Erste wirksame Dosis Apomorphin 16 mg.kg^-1 s.c.
[9] = Tabelle Ib, read-out: Erste wirksame Dosis T.S.T. Maus
[10] = mouse, Tabelle 5a, 16 mg/kg, without Naloxon
[11] = mouse, reaction time, 8 mg/kg i.p., plate 56,6°C
[12] = mouse, reaction time, 16 mg/kg i.p., plate 56,6°C, 16 mg/kg
[13] = mouse, reaction time, 32 mg/kg i.p., plate 56,6°C
[14] = 8 mg/kg i.p., 30 min before L-5 HTP 4 mg/kg i.p.
[15] = 4 mg/kg i.p., 30 min before L-5 HTP 4 mg/kg i.p.
[16] = mouse, i.p., only or lowest value of the cell
[17] = 1 mg/kg i.p., 30 min before L-5 HTP 4 mg/kg i.p.

SMILES	minimal effective dose [1, 7] [mg/kg]	% Antagonismus (Maus [2]; 16 mg/kg i.p.) [%]	Dauer der Unbeweglichkeit (Maus [2]; 16 mg/kg i.p.)	minimal effective dose (Apomorphin 16 mg/kg; [8]) [mg/kg]	Motilität (Motoraktivität)	minimal effective dose (Motoraktivität) [mg/kg]	minimal effective dose [3] [mg/kg]	minimal effective dose (Maus [4]; [9]) [mg/kg]	% Antagonismus (Maus [4]; 1 mg/kg i.p.) [%]	Dauer der Unbeweglichkeit (Maus [4]; 1 mg/kg i.p.) [Sekunden]	% Antagonismus (Maus [4]; 2 mg/kg i.p.) [%]	Dauer der Unbeweglichkeit (Maus [4]; 2 mg/kg i.p.)	% Antagonismus (Maus [4]; 4 mg/kg i.p.) [%]	Dauer der Unbeweglichkeit (Maus [4]; 4 mg/kg i.p.)	% Antagonismus (Maus [4]; 16 mg/kg i.p.) [%]	Dauer der Unbeweglichkeit (Maus [4]; 16 mg/kg i.p.)	minimal effective dose (Toxizität des Yohimbins) [mg/kg]	Aktimetrie (Motoraktivität; mouse)	Pfotenlecken (Maus [6]; [11])	Sprünge (Maus [6]; [11])	other results
CN(C)CCCN1c2ccccc2CCc2ccccc21 [IMIPRAMIN]	2	37	112 ± 23 p < 0,05 Sekunden	4	↘	128	8	1 to 4	31	70 ± 17	42	59 ± 8 p < 0,01 Sekunden	48	53 ± 11 p < 0,01 Sekunden	73	28 ± 7 p < 0,001 Sekunden	16	–	–	–	% Antagonismus (Maus [4]; 8 mg/kg i.p.): 58%; Dauer der Unbeweglichkeit (Maus [4]; 8 mg/kg i.p.): 48 ± 10 p < 0,01 Sekunden
Clc1ccc([C@@H]2CCNC[C@H]2c2ccccc2)cc1Cl [15 (HCl-Salz)]	–	–	–	–	–	–	–	–	–	–	–	–	–	–	–	–	–	↗	–	–	minimal effective dose ([1]; Mus musculus, read-out: Erste wirksame Dosis Reserpin, mouse, i.p., only or lowest value of the cell): 1 mg/kg; minimal effective dose (Apomorphin 16 mg/kg; Mus musculus, read-out: Erste wirksame Dosis Apomorphin 16 mg/kg, mouse, i.p., only or lowest value of the cell): 1 mg/kg; Erste wirksame Dosis Yohimbin (Toxizität des Yohimbins): 1 mg/kg; minimal effective dose [5]: 0.25 mg/kg
c1ccc([C@@H]2CCNC[C@H]2c2ccccc2)cc1 (relative stereo) [DPPT, trans-3,4-Diphenylpiperidin]	–	47	94 ± 17 p < 0,001 Sekunden	–	–	–	–	–	25	58 ± 13	51	38 ± 7 p < 0,01 Sekunden	79	16 ± 2 p < 0,001 Sekunden	84	12 ± 3 p < 0,001 Sekunden	–	–	7,0 ± 0,9 Sekunden	103 ± 10 Sekunden	minimal effective dose at 16 mg/kg (Maus [2]; ip, Porsolt test, effect stronger at 16 mg/kg, read-out: bedeutsame Abnahme in der Dauer der Unbeweglichkeit, Dosis): ≥ 8 mg/kg; % Antagonismus (Maus [2]; 8 mg/kg i.p.): 28%; Dauer der Unbeweglichkeit (Maus [2]; 8 mg/kg i.p.): 141 ± 16 p < 0,02 Sekunden; minimal effective dose (Maus [6]; Mus musculus, ip, 0.5 h, read-out: Effekt statistisch gesichert bei): 16 mg/kg; Pfotenlecken (Maus [6]; [10]): 10,0 ± 1,5 p < 00,1 Sekunden and 7,9 ± 0,6 p < 0,02 Sekunden; Sprünge (Maus [6]; [10]): 141 ± 12 p < 0,01 Sekunden and 125 ± 14 p < 0,01 Sekunden; schadenverhütender Effekt, Wechselwirkung mit Naloxon (Maus [6]; mouse, hot plate): unterliegt Antagonismus durch Naloxon; Pfotenlecken (Maus [6]; [12]): 8,7 ± 1,2 p < 0,02 Sekunden and 9,9 ± 2,0 Sekunden; Sprünge (Maus [6]; [12]): 154 ± 11 p < 0,001 Sekunden and 135 ± 14 p < 0,05 Sekunden; Pfotenlecken (Maus [6]; [13]): 13,0 ± 1,7 p < 0,01 Sekunden; Sprünge (Maus [6]; [13]): 193 ± 17 p < 0,001 Sekunden; stimulierender Effekt an der Maus (Motoraktivität; mouse, 16 mg/kg): keinen stimulierenden Effekt; minimal effective dose (Maus [4]; Mus musculus, read-out: bedeutsame Verkürzung der Dauer der Unbeweglichkeit, Dosis): ≥ 2 mg/kg; minimal effective dose (L-5-Hydroxytryptophan; ip, read-out: Zunahme der durch L-5 HTP induzierten ruckartigen Kopfbewegungen, Effekt gesichert bei): 8 mg/kg; Tremor (L-5-Hydroxytryptophan; [14]): 1,3 ± 0,4; ruckartige Kopfbewegungen (L-5-Hydroxytryptophan; [14]): 4,7 ± 0,6 p < 0,01; Tremor (L-5-Hydroxytryptophan; L-5 HTP potentiation): verstärkt
CNCCCN1c2ccccc2CCc2ccccc21 [DESIPRAMIN, reference compound]	0.25	–	–	2	↘	4	> 16	1 to 4	–	–	–	–	–	–	–	–	0.5	–	8,2 ± 0,5 p < 0,001 Sekunden	85 ± 7 Sekunden	% Antagonismus (Maus [2]; 8 mg/kg i.p.): 48%; Dauer der Unbeweglichkeit (Maus [2]; 8 mg/kg i.p.): 105 ± 16 p < 0,001 Sekunden; Tremor (L-5-Hydroxytryptophan; [15]): 0,5 ± 0,2; ruckartige Kopfbewegungen (L-5-Hydroxytryptophan; [15]): 3,8 ± 0,4 p < 0,01
Clc1ccc([C@@H]2CCNC[C@H]2c2ccccc2)cc1Cl [15 (Base)]	–	–	–	–	–	–	–	–	–	–	–	–	–	–	–	–	–	↗	–	–	Erste wirksame Dosis Reserpin [1, 16]: 0,5 mg/kg; Erste wirksame Dosis Apomorphin 16 mg/kg (Apomorphin 16 mg/kg; [16]): 0,5 mg/kg; Erste wirksame Dosis Yohimbin (Toxizität des Yohimbins): 4 mg/kg
c1ccc2c(CCC3CCNCC3)c[nH]c2c1 [Indalpin, reference compound]	–	–	–	–	–	–	–	–	–	–	–	–	–	–	–	–	–	–	8,4 ± 1,2 p < 0,02 Sekunden	132 ± 12 p ± 0,01 Sekunden	Tremor (L-5-Hydroxytryptophan; [17]): 2,0 ± 0,7; ruckartige Kopfbewegungen (L-5-Hydroxytryptophan; [17]): 4,1 ± 0,7 p < 0,01
